{"source": "paper PMC2787644", "about": "(Clinical cancer research : an official journal of the …, 2009)", "key": {"[1]": {"type": "in vivo, human", "settings": "component of flavopiridol + FOLFOX"}, "[2]": {"tested_on": "cisplatin-refractory GCT", "settings": "single agent, cited from earlier work"}, "[3]": {"experiment": "Flavopiridol plasma pharmacokinetics", "type": "in vivo", "settings": "human, intravenous, 80 mg/m2, Cmax, cohort 7a (80 mg/m^2)"}, "[4]": {"settings": "70 mg/m^2, combined with irinotecan; cited from earlier work"}}, "note": "Read-outs that look alike come from different tables or passages of the source.", "data": [{"smiles": "O=c1[nH]cc(F)c(=O)[nH]1", "note": "[5FU, fluorouracil]", "values": [{"measurement": "Maximum tolerated dose (MTD), continuous infusion over 48 hours", "setting": "[1]; every 2 weeks (cohort 6a)", "value": 1800, "unit": "mg/m^2"}, {"measurement": "Maximum tolerated dose (MTD), bolus", "setting": "[1]; every 2 weeks (fixed dose)", "value": 400, "unit": "mg/m^2"}]}, {"smiles": "O=C1[O][Pt]2([NH][C@@H]3CCCC[C@H]3[NH]2)[O]C1=O", "note": "[oxaliplatin]", "values": [{"measurement": "Overall response rate", "setting": "[2]; 60 mg/m^2 weekly on days 1, 8, 15 every 28 days", "value": 6, "unit": "%"}, {"measurement": "Objective response rate", "setting": "[2]; 130 mg/m^2 every 2 weeks", "value": 19, "unit": "%"}]}, {"smiles": "CN1CC[C@H](c2c(O)cc(O)c3c(=O)cc(-c4ccccc4Cl)oc23)[C@H](O)C1", "note": "[flavopiridol, Flavopiridol]", "values": [{"measurement": "Cmax", "setting": "[3]; the 3 patients who experienced a DLT", "value": 2260, "unit": "nM"}, {"measurement": "Cmax", "setting": "[3]; the other patients in the cohort", "value": 1450, "unit": "nM"}, {"measurement": "Cmax", "setting": "[4]", "value": "2760 ± 540", "unit": "nM"}]}]}
